Assay results: patent US9821002B2, “Method for alleviating radiation injury with isorhamnetin-3-O-β-D-glucoside” (Sinotai Oncology Associate., Ltd., priority 2015, dated 2017)

Experiments:
NMuMG cells [1] = assay: Cell cycle analysis (PI flow cytometry) after X-ray irradiation; assay type: cell-based, mouse; conditions: 2 h pretreatment, X-ray 20 Gy, 96 hours, mean ± SEM
Method: Four groups of NMuMG cells (i.e., a normal control group, an X-ray control group, and two experimental groups referred to as Experimental Groups 1 to 2) were prepared based on the procedure set forth in “Source and cultivation of cell lines” of “Experimental materials”. NMuMG cells in each group were cultivated using 5 mL of a corresponding medium shown in Table 1 and a 6-cm Petri dish in an amount of 2.5×10^5 cells per dish. The cultivation was conducted in an incubator (37° C., 5% CO2) for 24 hours.
Subsequently, medium was replaced with fresh medium, and a suitable amount of isorhamnetin-3-O-β-D-glucoside stock solution was added to the obtained culture in each of Experimental Groups 1 and 2, such that the final concentration of isorhamnetin-3-O-β-D-glucoside in the culture in Experimental Group 1 was 15 μM, and the final concentration of isorhamnetin-3-O-β-D-glucoside in the culture in Experimental Group 2 was 30 μM. Isorhamnetin-3-O-β-D-glucoside stock solution was not added to the cultures in the normal control group and the X-ray control group.
The culture in each group was then cultivated in an incubator (37° C., 5% CO2) for two hours. The resultant culture was used for the following cell cycle analysis.
The cultures in the X-ray control group and Experimental Groups 1 to 2, prepared according to section A of “Experimental procedures” in this example, were subjected to X-ray irradiation using a linear accelerator at a dose of 20 Gy. The culture in the normal control group received no X-ray irradiation treatment. The culture in each group was cultivated in an incubator (37° C., 5% CO2) for 96 hours, followed by centrifugation at 25° C. and 1200 rpm for 3 minutes. The supernatant was removed, and the precipitate thus obtained was washed with cold PBS (pH 7.4), followed by fixing the cells with 1 mL of cold methanol. The fixed cells thus obtained were left standing at −20° C. overnight. Following this, the fixed cells were washed with cold PBS (pH 7.4), and 250 μL of cold DNA dying solution which was prepared in ddH2O, containing 200 μg/mL RNase A solution (Sigma-Aldrich), 50 μg/mL propidium iodide (PI)(Sigma-Aldrich), and 0.1% (v/v) Triton X-100, was added to re-suspend the cells in each group. The cells were kept in the dark for 30 minutes at 37° C. to obtain stained cells.
Subsequently, the stained cells thus obtained were subjected to cell cycle analysis using BD Accuri™ C6 flow cytometer (BD Biosciences), and 1.0×10^6 cells were analyzed in each analysis. The cells emitted fluorescence when excited by a laser beam of argon ion at 488 nm, and the fluorescence intensity was detected at a wavelength of 585 nm. The percentage of the cells in each cell cycle phase was analyzed using BD Accuri™ C6 software (BD Biosciences).

NMuMG cells [2] = assay: Clonogenic assay after X-ray irradiation; assay type: cell-based, mouse; conditions: 30 μM, 2 h pretreatment, X-ray 2, 4, 6 Gy, colonies after two weeks
Source text: Eight groups of BNL CL.2 cells (i.e., a normal control group referred to as Normal Control Group 1-A, an isorhamnetin-3-O-β-D-glucoside group referred to as Isorhamnetin-3-O-β-D-glucoside Group 1-A, three X-ray control groups referred to as X-Ray Control Groups 1-A to 3-A, and three experimental groups referred to as Experimental Groups 1-A to 3-A) and eight groups of NMuMG cells (i.e., a normal control group referred to as Normal Control Group 1-B, an isorhamnetin-3-O-β-D-glucoside group referred to as Isorhamnetin-3-O-β-D-glucoside Group 1-B, three X-ray control groups referred to as X-Ray Control Groups 1-B to 3-B, and three experimental groups referred to as Experimental Groups 1-B to 3-B) were prepared based on the procedure set forth in “Source and cultivation of cell lines” of “Experimental materials”. Specifically, BNL CL.2 cells in each group were cultivated using 5 mL of a corresponding medium shown in Table 1 and a 6-cm Petri dish in an amount of 2×10^5 cells per dish. Likewise, NMuMG cells in each group were cultivated using 5 mL of a corresponding medium shown in Table 1 and a 6-cm Petri dish in an amount of 2.5×10^5 cells per dish. The cultivation was conducted in an incubator (37° C., 5% CO2) for 24 hours. […]

COc1cc(-c2oc3cc(O)cc(O)c3c(=O)c2O[C@@H]2O[C@H](CO)[C@@H](O)[C@H](O)[C@H]2O)ccc1O [isorhamnetin-3-O-β-D-glucoside]
The percentage of the cells in each cell cycle phase: G0/G1 (NMuMG cells [1]; 15 μM): 21 ± 4.31 %
The percentage of the cells in each cell cycle phase: G2/M (NMuMG cells [1]; 15 μM): 58.76 ± 8.97%
The percentage of the cells in each cell cycle phase: S (NMuMG cells [1]; 15 μM): 6.4 ± 0.28%
The percentage of the cells in each cell cycle phase: Sub-G1 (NMuMG cells [1]; 15 μM): 16.11 ± 2.03 %
The percentage of the cells in each cell cycle phase: G0/G1 (NMuMG cells [1]; 30 μM): 22.25 ± 4.87 %
The percentage of the cells in each cell cycle phase: G2/M (NMuMG cells [1]; 30 μM): 59.63 ± 10.78%
The percentage of the cells in each cell cycle phase: S (NMuMG cells [1]; 30 μM): 5.88 ± 1.2%
The percentage of the cells in each cell cycle phase: Sub-G1 (NMuMG cells [1]; 30 μM): 13.88 ± 1.46 %
survival fraction (clonogenic assay) versus X-ray control group (NMuMG cells [2]): higher than that of the X-ray control group
